Assay results: ChEMBL document CHEMBL2429769, “Synthesis and bioconversions of formestane” (J Nat Prod, 2013)

Legend:
MCF7 = assay: Cytotoxicity against human MCF7 cells after 72 hrs by SRB assay; assay type: functional, cell-based; details: MCF7, 72 h
Aromatase = biological target: T1, Aromatase (Homo sapiens, UniProt P11511)
T1 sequence (P11511 whole entry): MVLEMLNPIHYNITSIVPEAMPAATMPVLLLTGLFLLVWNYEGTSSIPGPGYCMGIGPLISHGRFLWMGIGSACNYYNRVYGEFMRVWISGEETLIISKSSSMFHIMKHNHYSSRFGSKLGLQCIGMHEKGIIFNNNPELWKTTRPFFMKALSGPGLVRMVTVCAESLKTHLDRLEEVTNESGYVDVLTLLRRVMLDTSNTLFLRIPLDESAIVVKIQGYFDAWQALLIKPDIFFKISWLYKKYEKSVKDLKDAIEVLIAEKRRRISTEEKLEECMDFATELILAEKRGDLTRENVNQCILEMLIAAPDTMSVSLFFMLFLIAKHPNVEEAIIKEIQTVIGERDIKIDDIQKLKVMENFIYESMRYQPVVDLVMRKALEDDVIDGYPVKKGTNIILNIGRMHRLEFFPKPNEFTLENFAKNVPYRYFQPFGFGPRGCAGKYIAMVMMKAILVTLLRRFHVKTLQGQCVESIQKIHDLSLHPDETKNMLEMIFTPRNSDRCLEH
Description: Inhibition of aromatase (unknown origin) using dibenzylfluorescein as substrate after 30 mins by fluorescence assay

Row | Structure (SMILES) | IC50 (MCF7) | IC50 (Aromatase)
1 | C[C@]12CC[C@H]3[C@@H](CC[C@@]4(O)[C@@H](O)C(=O)CC[C@]34C)[C@@H]1CCC2=O | 15 µM | 29.1 µM
2 | C[C@]12CC[C@H]3[C@@H](CCC4=C(O)C(=O)CC[C@@]43C)[C@@H]1CC[C@@H]2O | 16.5 µM | 47 µM
3 | C[C@]12C[C@@H](O)[C@H]3[C@@H](CCC4=C(O)C(=O)CC[C@@]43C)[C@@H]1CC[C@@H]2O | 12.5 µM | 10.9 µM
4 | C[C@]12CC[C@@H](O)C(=O)[C@H]1CC[C@@H]1[C@@H]2CC[C@]2(C)[C@@H](O)CC[C@@H]12 [3ALPHA,17BETA-DIHYDROXY-5BETA-ANDROSTAN-4-ONE] | 16.4 µM | 3.9 µM
5 | C[C@]12CCC(=O)C(O)=C1CC[C@@H]1[C@@H]2CC[C@]2(C)C(=O)CC[C@@H]12 [FORMESTANE] | 20 µM | 58.6 µM
6 | CC[C@]1(O)C[C@@H]2CN(CCc3c([nH]c4ccccc34)[C@@](C(=O)OC)(c3cc4c(cc3OC)N(C)[C@H]3[C@@](O)(C(=O)OC)[C@H](OC(C)=O)[C@]5(CC)C=CCN6CC[C@]43[C@@H]65)C2)C1 [VINBLASTINE] | 0.0109 µM | 
